Laboratory results reported in patent US4199499A, “Pharmacologically active peptides” (Eli Lilly and Company, priority 1978, dated 1980).

Test system: mouse
Test: mouse hot plate test
Type: in vivo
Conditions: 15 minutes after administration, hot plate 52° C.
Description: The compounds of this invention are useful as analgesics. […] In this test, a mouse is placed inside an upright acrylic cylinder comprising, as its base, a hot plate surface which is maintained at 52° C. The mouse is given, by subcutaneous injection, a predetermined amount of test compound dissolved or suspended in a suitable carrier, and, 15 minutes after administration of the test compound, the mouse is placed on the hot plate surface. The latencies in seconds until the occurrence of each of two separate phenomena then are recorded. First the latency until the mouse licks its hind paw is measured, and, secondly, the latency until the mouse jumps from the hot plate surface is measured. […] This must occur in a dose range which produces no motor incoordination or incapacitation. The following Table records the results obtained from this test, reflected in terms of increase over saline control. Each data point was determined using ten treated and ten control mice, and each represents the difference in mean response latency between treated and control animals. The mean control latency for the hind paw lick response was 28.4±0.9 seconds determined from eight groups of ten control mice each. The mean control jump latency was 52.4±3.7 seconds for studies run in the a.m. and 75.9±6.0 seconds for studies run in the p.m. as determined from four groups of ten mice each in the a.m. and four groups of ten mice each in the p.m.

CSCCC(C)(CO)NC(=O)[C@H](Cc1ccccc1)NC(=O)CNC(=O)[C@@H](C)NC(=O)[C@@H](N)Cc1ccc(O)cc1 (stereo partly drawn) [C, L-Tyrosyl-D-alanyl-glycyl-L-phenylalanyl-D,L-α-methylmethionine carbinol]
Latency, Increase in Seconds over Control, escape jump (EJ) (dose 0.1 mg/kg subcutaneous): 16.4 s | Latency, Increase in Seconds over Control, hind paw lick (HPL) (dose 0.1 mg/kg subcutaneous): -2.6 s | Latency, Increase in Seconds over Control, escape jump (EJ) (dose 0.3 mg/kg subcutaneous): 47.7 s | Latency, Increase in Seconds over Control, hind paw lick (HPL) (dose 0.3 mg/kg subcutaneous): 1.7 s | Latency, Increase in Seconds over Control, escape jump (EJ) (dose 1 mg/kg subcutaneous): 55.2 s | Latency, Increase in Seconds over Control, hind paw lick (HPL) (dose 1 mg/kg subcutaneous): 8.3 s | Latency, Increase in Seconds over Control, escape jump (EJ) (dose 3 mg/kg subcutaneous): 74.9 s | Latency, Increase in Seconds over Control, hind paw lick (HPL) (dose 3 mg/kg subcutaneous): 11.2 s | Latency, Increase in Seconds over Control, escape jump (EJ) (dose 10 mg/kg subcutaneous): 90.7 s | Latency, Increase in Seconds over Control, hind paw lick (HPL) (dose 10 mg/kg subcutaneous): 18.8 s | Latency, Increase in Seconds over Control, escape jump (EJ) (dose 30 mg/kg subcutaneous): 93.8 s | Latency, Increase in Seconds over Control, hind paw lick (HPL) (dose 30 mg/kg subcutaneous): 10.6 s
